# Assay results from US20240150365A1 (Hotspot Therapeutics, Inc., priority 2022, published 2024).
# Like-named read-outs stand apart in the source and are kept apart here.
# Experiments:
# [1] = target: T1, MALT1 (Homo sapiens, UniProt Q9UDY8); assay: MALT-1 Fluorogenic Peptide Cleavage Assay (MALT1 inhibition assay); format: biochemical; settings: Avi-tagged FL MALT-1, Ac-LRSR-AMC peptide substrate, 30 min pre-incubation, 90 min reaction
# T1 construct: Avi-tagged FL MALT-1 (Pharmaron, stored at −70° C.); Avi tag
# T1 sequence (Q9UDY8 1-824): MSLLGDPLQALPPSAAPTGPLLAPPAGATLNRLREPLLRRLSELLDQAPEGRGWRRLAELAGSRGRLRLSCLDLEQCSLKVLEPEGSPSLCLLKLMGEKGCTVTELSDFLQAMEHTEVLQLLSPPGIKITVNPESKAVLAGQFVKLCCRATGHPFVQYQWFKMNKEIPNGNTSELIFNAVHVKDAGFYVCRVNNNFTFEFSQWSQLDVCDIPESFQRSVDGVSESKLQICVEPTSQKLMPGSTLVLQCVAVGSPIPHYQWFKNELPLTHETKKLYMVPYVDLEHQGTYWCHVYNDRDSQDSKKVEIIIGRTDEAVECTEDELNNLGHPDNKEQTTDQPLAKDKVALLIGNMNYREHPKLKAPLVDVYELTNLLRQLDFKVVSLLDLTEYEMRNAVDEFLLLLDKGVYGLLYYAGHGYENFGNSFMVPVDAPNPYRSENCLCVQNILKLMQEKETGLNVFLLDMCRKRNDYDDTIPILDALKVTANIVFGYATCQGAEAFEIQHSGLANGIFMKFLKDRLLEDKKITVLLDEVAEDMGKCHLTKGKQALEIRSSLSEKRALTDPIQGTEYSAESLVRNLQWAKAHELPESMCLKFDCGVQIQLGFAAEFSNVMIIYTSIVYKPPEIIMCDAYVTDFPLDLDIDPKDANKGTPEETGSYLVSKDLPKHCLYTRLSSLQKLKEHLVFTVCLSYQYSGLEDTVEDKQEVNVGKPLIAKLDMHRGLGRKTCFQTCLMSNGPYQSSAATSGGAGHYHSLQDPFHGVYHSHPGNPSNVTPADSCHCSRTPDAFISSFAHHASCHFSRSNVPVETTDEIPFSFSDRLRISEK
# In short: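 IC50 from sigmoidal fits of % inhibition, with fluorescence (ex 342, em 441 nm) from AMC released from the quenched LRSR peptide after 90 min at room temperature. Full-length Avi-tagged MALT1 saw compound for 30 min first; final DMSO 2%.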
# [2] = test system: NF-kB; assay: NF-kB reporter assay in Jurkat cells stimulated with aCD3/aCD28/PMA; format: cell-based; settings: Homo sapiens, Jurkat, read-out: NF-kB Reporter Assay IC50
# In short: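 Stimulation used final aCD3 5 μg/mL, aCD28 5 μg/mL and PMA 0.03 μg/mL for 4 hr at 37° C, after 1 hr compound pretreatment of 25,000 serum-starved Jurkat cells per well. One-Glo luminescence gave IC50 values.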
# [3] = Jurkat cells, 1 hr compound incubation, aCD3/aCD28/PMA stimulation 4 hr, One-Glo readout
SMILES,IC50 [1],"IC50 [2, 3]",IC50 [2]
"COc1ccc2cnn(C)c2c1NS(=O)(=O)c1ccc(-n2cc(C(C)(C)C)cn2)nc1 [Example I-285, 6-(4-tert-butylpyrazol-1-yl)-N-(6-methoxy-1-methylindazol-7-yl)pyridine-3-sulfonamide]",0.4 to 1 µM,< 0.4 µM,–
"Cn1ncc2cccc(NS(=O)(=O)c3ccc(-c4ccncc4)nc3)c21 [Example I-116, N-(1-METHYL-1H-INDAZOL-7-YL)-[2,4′-BIPYRIDINE]-5-SULFONAMIDE]",> 2.5 µM,0.4 to 1 µM,–
"COc1ccc(-c2ccc(S(=O)(=O)Nc3cccc4cnn(C)c34)cn2)cn1 [Example I-210, 6′-Methoxy-N-(1-Methyl-1H-Indazol-7-yl)-[2,3′-Bipyridine]-5-Sulfonamide]",> 2.5 µM,< 0.4 µM,–
"Cn1ncc2cccc(NS(=O)(=O)c3ccc(N4CCOC4=O)nc3)c21 [Example I-230, N-(1-Methyl-1H-Indazol-7-yl)-6-(2-Oxooxazolidin-3-yl)Pyridine-3-Sulfonamide]",> 2.5 µM,> 2.5 µM,–
"COc1ncc2cnn(C)c2c1NS(=O)(=O)c1ccc(-n2ccc(C(F)(F)F)n2)nc1 [Example I-156, N-(6-Methoxy-1-Methyl-1H-Pyrazolo[4,3-C]Pyridin-7-yl)-6-(3-(Trifluoromethyl)-1H-Pyrazol-1-yl)Pyridine-3-Sulfonamide]",< 0.4 µM,< 0.4 µM,–
"CN[C@@H]1CCCC[C@H]1N(C)c1ccc(S(=O)(=O)Nc2cccc3cnn(C)c23)cn1 [Example I-248, 6-{methyl[(1R,2R)-2-(methylamino)cyclohexyl]amino}-N-(1-methylindazol-7-yl)pyridine-3-sulfonamide]",> 2.5 µM,> 2.5 µM,–
"COc1ncc2cnn(C)c2c1NS(=O)(=O)c1ccc(-n2cc(F)cn2)nc1 [Example I-193, 6-(4-fluoro-1H-pyrazol-1-yl)-N-(6-methoxy-1-methyl-1H-pyrazolo[4,3-c]pyridin-7-yl)pyridine-3-sulfonamide]",< 0.4 µM,< 0.4 µM,–
"Cn1[nH]c(=O)c2c(NS(=O)(=O)c3ccc(-n4cc(C(F)(F)F)cn4)nc3)cccc21 [Example I-198, N-(1-methyl-3-oxo-2,3-dihydro-1H-indazol-4-yl)-6-(4-(trifluoromethyl)-1H-pyrazol-1-yl)pyridine-3-sulfonamide]",> 2.5 µM,1 to 2.5 µM,–
"Cn1ncc2cccc(NS(=O)(=O)c3ccc(-c4ccncc4F)nc3)c21 [Example I-120, 3′-Fluoro-N-(1-Methylindazol-7-yl)-[2,4′-Bipyridine]-5-Sulfonamide]",> 2.5 µM,< 0.4 µM,–
"COc1ccc2cnn(C)c2c1NS(=O)(=O)c1ccc(-n2cnc(C(F)(F)F)c2)nc1 [Example I-286, N-(6-methoxy-1-methylindazol-7-yl)-6-[4-(trifluoromethyl)imidazol-1-yl]pyridine-3-sulfonamide]",< 0.4 µM,< 0.4 µM,–
"[2H]C([2H])([2H])n1ncc2cnc(OC)c(N(C)S(=O)(=O)c3ccc(-n4cc(C(F)(F)F)cn4)nc3)c21 [Example I-291, N-(6-methoxy-1-(methyl-d3)-1H-pyrazolo[4,3-c]pyridin-7-yl)-N-methyl-6-(4-(trifluoromethyl)-1H-pyrazol-1-yl)pyridine-3-sulfonamide]",< 0.4 µM,< 0.4 µM,–
"COc1ccc2cnn(C)c2c1NS(=O)(=O)c1ccc(-c2cnn3c2COCCC3)nc1 [Example I-310, 6-(7,8-dihydro-4H,6H-pyrazolo[5,1-c][1,4]oxazepin-3-yl)-N-(6-methoxy-1-methyl-1H-indazol-7-yl)pyridine-3-sulfonamide]",> 2.5 µM,> 2.5 µM,–
"Cn1c(=O)c2c(NS(=O)(=O)c3ccc(-n4cc(C(F)(F)F)cn4)nc3)cccc2n1C [Example I-182, N-(1,2-dimethyl-3-oxo-2,3-dihydro-1H-indazol-4-yl)-6-(4-(trifluoromethyl)-1H-pyrazol-1-yl)pyridine-3-sulfonamide]",> 2.5 µM,> 2.5 µM,–
"COc1ccc2cnn(C)c2c1NS(=O)(=O)c1ccc(-c2nc(C)n(C)n2)nc1 [Example I-176, 6-(1,5-Dimethyl-1,2,4-Triazol-3-yl)-N-(6-Methoxy-1-Methylindazol-7-yl)Pyridine-3-Sulfonamide]",> 2.5 µM,> 2.5 µM,–
"COc1ccc2cnn(C)c2c1NS(=O)(=O)c1ccc(-n2cc([N+](=O)[O-])cn2)nc1 [Example I-157, N-(6-Methoxy-1-Methyl-1H-Indazol-7-yl)-6-(4-Nitro-1H-Pyrazol-1-yl)Pyridine-3-Sulfonamide]",< 0.4 µM,< 0.4 µM,–
"COc1ccc2cnn(C)c2c1NS(=O)(=O)c1ccc(-n2nc(C(F)(F)F)c3c2CCOC3)nc1 [Example I-304, N-(6-methoxy-1-methyl-1H-indazol-7-yl)-6-(3-(trifluoromethyl)-6,7-dihydropyrano[4,3-c]pyrazol-1(4H)-yl)pyridine-3-sulfonamide]",< 0.4 µM,< 0.4 µM,–
"COc1ccc2c(F)nn(C)c2c1NS(=O)(=O)c1ccc(-n2cc(C)cn2)nc1 [Example I-249, N-(3-fluoro-6-methoxy-1-methyl-1H-indazol-7-yl)-6-(4-methyl-1H-pyrazol-1-yl)pyridine-3-sulfonamide]",< 0.4 µM,–,0.4 to 1 µM
"COc1ncc2cnn(C)c2c1NS(=O)(=O)c1ccc(-n2nccc2C(F)(F)F)nc1 [Example I-211, N-(6-Methoxy-1-Methyl-1H-Pyrazolo[4,3-C]Pyridin-7-yl)-6-(5-(Trifluoromethyl)-1H-Pyrazol-1-yl)Pyridine-3-Sulfonamide]",> 2.5 µM,0.4 to 1 µM,–
"Cn1ncc2cccc(NS(=O)(=O)c3ccc(-n4cc(C#N)cn4)nc3)c21 [Example I-39, 6-(4-Cyano-1H-Pyrazol-1-yl)-N-(1-Methyl-1H-Indazol-7-yl)Pyridine-3-Sulfonamide]",> 2.5 µM,0.4 to 1 µM,–
"CN(C)c1ncccc1-c1ccc(S(=O)(=O)Nc2cccc3cnn(C)c23)cn1 [Example I-221, 2′-(Dimethylamino)-N-(1-Methyl-1H-Indazol-7-yl)-[2,3′-Bipyridine]-5-Sulfonamide]",> 2.5 µM,–,1 to 2.5 µM
"COc1ccc2cnn(C)c2c1N(CCCN(C)C)S(=O)(=O)c1ccc(-n2cc(C(F)(F)F)cn2)nc1 [Example I-164, N-(3-(Dimethylamino)Propyl)-N-(6-Methoxy-1-Methyl-1H-Indazol-7-yl)-6-(4-(Trifluoromethyl)-1H-Pyrazol-1-yl)Pyridine-3-Sulfonamide]",< 0.4 µM,0.4 to 1 µM,–
"COc1ncccc1-c1ccc(S(=O)(=O)Nc2cccc3cnn(C)c23)cn1 [Example I-139, 2′-Methoxy-N-(1-Methyl-1H-Indazol-7-yl)-[2,3′-Bipyridine]-5-Sulfonamide]",> 2.5 µM,< 0.4 µM,–
"COc1ccc2ccn(C)c2c1NS(=O)(=O)c1ccc(-n2cc(C(F)(F)F)cn2)nc1 [Example I-188, N-(6-methoxy-1-methyl-1H-indol-7-yl)-6-(4-(trifluoromethyl)-1H-pyrazol-1-yl)pyridine-3-sulfonamide]",< 0.4 µM,< 0.4 µM,–
"CCc1ccc2cnn(C)c2c1NS(=O)(=O)c1cnc(-n2cc(C(F)(F)F)cn2)nc1 [Example I-8, N-(6-Ethyl-1-Methyl-1H-Indazol-7-yl)-2-(4-(Trifluoromethyl)-1H-Pyrazol-1-yl)Pyrimidine-5-Sulfonamide]",> 2.5 µM,> 2.5 µM,–
COc1ncc2cnn(C)c2c1NS(=O)(=O)c1ccc(-c2cnn3c2CCC3)nc1 [Example I-289],> 2.5 µM,0.4 to 1 µM,–
"COc1ccc2cnn(C)c2c1NS(=O)(=O)c1ccc(-c2noc(C)n2)nc1 [Example I-161, N-(6-Methoxy-1-Methyl-1H-Indazol-7-yl)-6-(5-Methyl-1,2,4-Oxadiazol-3-yl)Pyridine-3-Sulfonamide]",1 to 2.5 µM,0.4 to 1 µM,–
"COc1ccc2cnn(C)c2c1NS(=O)(=O)c1ccc(-n2cc(C(F)(F)F)nn2)nc1 [Example I-29, N-(6-Methoxy-1-Methyl-1H-Indazol-7-yl)-6-(4-(Trifluoromethyl)-1H-1,2,3-Triazol-1-yl)Pyridine-3-Sulfonamide]",< 0.4 µM,< 0.4 µM,–
"Cn1ncc2cccc(NS(=O)(=O)c3ccc(-n4cc(C(N)=O)cn4)nc3)c21 [Example I-105, 1-(5-(N-(1-Methyl-1H-Indazol-7-yl)Sulfamoyl)Pyridin-2-yl)-1H-Pyrazole-4-Carboxamide]",> 2.5 µM,> 2.5 µM,–
